# Reference: ChEMBL document CHEMBL5143515, “Identification of new halogen-containing 2,4-diphenyl indenopyridin-5-one derivative as a boosting agent for the anticancer responses of clinically available topoisomerase inhibitors” (Eur J Med Chem, 2022)
# Structures can show the parent of a compound that is named as a salt.
# Tests used:
# [1] = biological target: DNA topoisomerase 2-alpha (Homo sapiens) (UniProt P11388); assay: Inhibition of recombinant human topoisomerase 2alpha assessed as relaxation of supercoiled plasmid pBR322 DNA at 100 uM by agarose gel electrophoresis (reference value: […]%)
# [2] = biological target: T1, DNA topoisomerase 1 (Homo sapiens) (UniProt P11387); assay: Inhibition of recombinant human topoisomerase 1 assessed as relaxation of supercoiled plasmid pBR322 DNA at 100 uM by agarose gel electrophoresis (reference value: 90.6%)
# T1 sequence (whole entry): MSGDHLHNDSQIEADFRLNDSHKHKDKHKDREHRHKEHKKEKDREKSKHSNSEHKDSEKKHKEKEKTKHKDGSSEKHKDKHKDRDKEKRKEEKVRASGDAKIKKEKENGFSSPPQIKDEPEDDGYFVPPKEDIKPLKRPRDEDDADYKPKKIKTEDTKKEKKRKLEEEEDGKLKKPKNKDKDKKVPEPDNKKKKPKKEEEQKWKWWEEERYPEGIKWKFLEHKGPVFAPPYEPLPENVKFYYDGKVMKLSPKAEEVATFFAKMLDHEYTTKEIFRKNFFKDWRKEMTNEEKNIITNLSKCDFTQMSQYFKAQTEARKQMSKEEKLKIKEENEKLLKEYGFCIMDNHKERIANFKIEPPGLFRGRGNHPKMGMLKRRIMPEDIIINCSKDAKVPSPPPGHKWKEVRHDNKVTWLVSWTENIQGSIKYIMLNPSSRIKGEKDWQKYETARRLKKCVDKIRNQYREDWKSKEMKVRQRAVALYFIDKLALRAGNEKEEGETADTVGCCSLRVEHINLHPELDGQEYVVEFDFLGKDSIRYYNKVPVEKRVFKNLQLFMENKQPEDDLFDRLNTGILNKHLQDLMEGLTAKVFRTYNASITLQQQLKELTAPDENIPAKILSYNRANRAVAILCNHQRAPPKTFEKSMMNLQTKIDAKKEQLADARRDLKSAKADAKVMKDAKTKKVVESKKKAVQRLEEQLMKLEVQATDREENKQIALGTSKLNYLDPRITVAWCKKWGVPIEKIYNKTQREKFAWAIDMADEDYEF
# HCT-15 = assay: Antiproliferative activity against human HCT-15 cells after 72 hrs by EZ-Cytox colorimetric assay; type: functional, cell-based; conditions: HCT-15, 72 h
# DU-145 = assay: Antiproliferative activity against human DU-145 cells after 72 hrs by EZ-Cytox colorimetric assay; type: functional, cell-based; conditions: DU-145, 72 h
# T47D = assay: Antiproliferative activity against human T47D cells after 72 hrs by EZ-Cytox colorimetric assay; type: functional, cell-based
# HeLa = assay: Antiproliferative activity against human HeLa cells after 72 hrs by EZ-Cytox colorimetric assay; type: functional, cell-based
# [3] = biological target: DNA topoisomerase 2-alpha (Homo sapiens) (UniProt P11388); assay: Inhibition of recombinant human topoisomerase 2alpha assessed as relaxation of supercoiled plasmid pBR322 DNA at 100 uM by agarose gel electrophoresis (reference value: 84.9%)
# [4] = biological target: T1, DNA topoisomerase 1 (Homo sapiens); assay: Inhibition of recombinant human topoisomerase 1 assessed as relaxation of supercoiled plasmid pBR322 DNA at 100 uM by agarose gel electrophoresis (reference value: […]%)
# [5] = biological target: DNA topoisomerase 2-alpha (Homo sapiens) (UniProt P11388); assay: Inhibition of recombinant human topoisomerase 2alpha assessed as relaxation of supercoiled plasmid pBR322 DNA at 20 uM by agarose gel electrophoresis relative to control
# [6] = biological target: DNA topoisomerase 2-alpha (Homo sapiens) (UniProt P11388); assay: Inhibition of recombinant human topoisomerase 2alpha assessed as relaxation of supercoiled plasmid pBR322 DNA at 100 uM by agarose gel electrophoresis (reference value: 82.2%)
# [7] = biological target: T1, DNA topoisomerase 1 (Homo sapiens); assay: Inhibition of recombinant human topoisomerase 1 assessed as relaxation of supercoiled plasmid pBR322 DNA at 100 uM by agarose gel electrophoresis (reference value: 83.2%)
# [8] = biological target: T1, DNA topoisomerase 1 (Homo sapiens); assay: Inhibition of recombinant human topoisomerase 1 assessed as relaxation of supercoiled plasmid pBR322 DNA at 100 uM by agarose gel electrophoresis (reference value: 81.9%)
# [9] = biological target: T1, DNA topoisomerase 1 (Homo sapiens); assay: Inhibition of recombinant human topoisomerase 1 assessed as relaxation of supercoiled plasmid pBR322 DNA at 20 uM by agarose gel electrophoresis (reference value: 38.3%)
# [10] = biological target: DNA topoisomerase 2-alpha (Homo sapiens) (UniProt P11388); assay: Inhibition of recombinant human topoisomerase 2alpha assessed as relaxation of supercoiled plasmid pBR322 DNA at 100 uM by agarose gel electrophoresis (reference value: 81%)
# [11] = biological target: DNA topoisomerase 2-alpha (Homo sapiens) (UniProt P11388); assay: Inhibition of recombinant human topoisomerase 2alpha assessed as relaxation of supercoiled plasmid pBR322 DNA at 20 uM by agarose gel electrophoresis (reference value: 48.4%)
# [12] = biological target: T1, DNA topoisomerase 1 (Homo sapiens); assay: Inhibition of recombinant human topoisomerase 1 assessed as relaxation of supercoiled plasmid pBR322 DNA at 20 uM by agarose gel electrophoresis (reference value: 40.4%)
# [13] = biological target: DNA topoisomerase 2-alpha (Homo sapiens) (UniProt P11388); assay: Inhibition of recombinant human topoisomerase 2alpha assessed as relaxation of supercoiled plasmid pBR322 DNA at 20 uM by agarose gel electrophoresis (reference value: […]%)
# DNA topoisomerase 2-alpha (Homo sapiens), sequence (P11388 whole entry): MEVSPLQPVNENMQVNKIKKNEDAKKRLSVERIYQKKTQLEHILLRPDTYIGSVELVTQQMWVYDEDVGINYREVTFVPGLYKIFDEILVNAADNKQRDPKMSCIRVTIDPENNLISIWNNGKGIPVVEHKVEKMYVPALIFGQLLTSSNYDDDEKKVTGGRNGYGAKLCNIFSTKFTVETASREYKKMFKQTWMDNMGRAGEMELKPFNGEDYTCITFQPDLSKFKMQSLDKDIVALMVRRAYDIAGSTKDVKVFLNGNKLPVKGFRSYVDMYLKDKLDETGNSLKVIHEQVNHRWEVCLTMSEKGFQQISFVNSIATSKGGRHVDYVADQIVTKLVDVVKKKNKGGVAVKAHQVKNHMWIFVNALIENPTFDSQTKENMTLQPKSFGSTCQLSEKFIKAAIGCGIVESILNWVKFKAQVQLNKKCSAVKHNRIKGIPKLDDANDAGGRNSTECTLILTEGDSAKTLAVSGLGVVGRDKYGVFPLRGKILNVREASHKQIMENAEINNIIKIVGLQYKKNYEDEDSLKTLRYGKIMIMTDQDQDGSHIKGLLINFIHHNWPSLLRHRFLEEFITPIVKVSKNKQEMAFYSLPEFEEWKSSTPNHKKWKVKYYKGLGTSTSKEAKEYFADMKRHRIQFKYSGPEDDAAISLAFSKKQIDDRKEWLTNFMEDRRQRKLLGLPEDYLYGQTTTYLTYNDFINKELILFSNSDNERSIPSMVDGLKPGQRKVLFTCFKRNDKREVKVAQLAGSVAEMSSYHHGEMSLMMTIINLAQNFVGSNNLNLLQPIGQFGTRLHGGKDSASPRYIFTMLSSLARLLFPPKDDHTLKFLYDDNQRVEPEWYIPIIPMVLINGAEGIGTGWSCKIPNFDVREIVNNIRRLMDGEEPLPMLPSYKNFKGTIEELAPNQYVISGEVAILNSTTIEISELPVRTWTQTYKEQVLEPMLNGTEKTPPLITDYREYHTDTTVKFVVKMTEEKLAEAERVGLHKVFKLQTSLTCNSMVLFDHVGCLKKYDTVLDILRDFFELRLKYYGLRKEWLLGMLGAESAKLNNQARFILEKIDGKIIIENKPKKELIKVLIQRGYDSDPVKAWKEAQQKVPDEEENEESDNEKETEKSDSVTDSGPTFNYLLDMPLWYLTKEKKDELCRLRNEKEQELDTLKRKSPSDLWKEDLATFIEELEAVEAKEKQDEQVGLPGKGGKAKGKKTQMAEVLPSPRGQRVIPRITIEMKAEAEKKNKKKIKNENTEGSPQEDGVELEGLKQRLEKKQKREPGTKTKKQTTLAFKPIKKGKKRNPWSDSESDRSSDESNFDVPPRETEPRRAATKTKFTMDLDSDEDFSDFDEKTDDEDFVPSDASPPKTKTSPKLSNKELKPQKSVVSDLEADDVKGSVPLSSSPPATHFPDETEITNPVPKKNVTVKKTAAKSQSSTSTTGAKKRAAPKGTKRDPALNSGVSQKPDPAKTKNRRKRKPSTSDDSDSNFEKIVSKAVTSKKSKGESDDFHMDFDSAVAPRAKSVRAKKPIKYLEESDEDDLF
SMILES,inhibition [1],inhibition [2],IC50 (HCT-15),IC50 (DU-145),IC50 (T47D),IC50 (HeLa),inhibition [3],inhibition [4],inhibition [5],inhibition [6],inhibition [7],inhibition [8],inhibition [9],inhibition [10],inhibition [11],inhibition [12],inhibition [13]
OC1c2ccccc2-c2nc(-c3ccccc3Cl)cc(-c3ccccc3)c21 (centres undefined),0%,7.6%,3.37 µM,0.41 µM,1.48 µM,10.4 µM,,,,,,,,,,,
OC1c2ccccc2-c2nc(-c3ccccc3C(F)(F)F)cc(-c3ccccc3)c21 (centres undefined),,,> 50 µM,> 50 µM,> 50 µM,> 50 µM,52.2%,7.2%,8.1%,,,,,,,,
OC1c2ccccc2-c2nc(-c3ccc(Cl)cc3)cc(-c3ccccc3)c21 (centres undefined),0%,6.3%,> 50 µM,35.1 µM,> 50 µM,> 50 µM,,,,,,,,,,,
O=C1c2ccccc2-c2nc(-c3ccccc3F)cc(-c3ccccc3)c21,,,49.2 µM,> 50 µM,> 50 µM,> 50 µM,,,,0%,26.7%,,,,,,
OC1c2ccccc2-c2nc(-c3ccc(Br)cc3)cc(-c3ccccc3)c21 (centres undefined),0%,10.5%,> 50 µM,2.11 µM,28.7 µM,> 50 µM,,,,,,,,,,,
O=C1c2ccccc2-c2nc(-c3ccc(OC(F)(F)F)cc3)cc(-c3ccccc3)c21,,,9.7 µM,9.63 µM,2.69 µM,35.5 µM,,,,,,34.3%,3.7%,6.5%,,,
O=C1c2ccccc2-c2nc(-c3ccccc3Cl)cc(-c3ccccc3)c21,,,> 50 µM,> 50 µM,> 50 µM,> 50 µM,,,,93.3%,66.7%,,,,71.8%,0%,
O=C1c2ccccc2-c2nc(-c3cccc(OC(F)(F)F)c3)cc(-c3ccccc3)c21,,,27.6 µM,17.8 µM,16.8 µM,> 50 µM,,,,,,100%,8.5%,0.5%,,,
O=C1c2ccccc2-c2nc(-c3cccc(Br)c3)cc(-c3ccccc3)c21,,,17.9 µM,9.48 µM,28 µM,20.2 µM,,,,83.8%,82.9%,,,,5.3%,0%,
O=C1c2ccccc2-c2nc(-c3cccc(C(F)(F)F)c3)cc(-c3ccccc3)c21,,,21.5 µM,15.2 µM,> 50 µM,> 50 µM,,,,,,81.9%,22.5%,92.2%,,,3.4%
O=C1c2ccccc2-c2nc(-c3ccccc3C(F)(F)F)cc(-c3ccccc3)c21,,,> 50 µM,34 µM,> 50 µM,> 50 µM,,,,,,45%,15.6%,83.1%,,,0.9%
O=C1c2ccccc2-c2nc(-c3ccc(Cl)cc3)cc(-c3ccccc3)c21,,,> 50 µM,5.76 µM,> 50 µM,> 50 µM,,,,91.3%,80.4%,,,,60%,0%,
OC1c2ccccc2-c2nc(-c3ccc(OC(F)(F)F)cc3)cc(-c3ccccc3)c21 (centres undefined),,,> 50 µM,> 50 µM,> 50 µM,> 50 µM,61.2%,26.8%,8.7%,,,,,,,,
OC1c2ccccc2-c2nc(-c3cccc(F)c3)cc(-c3ccccc3)c21 (centres undefined),0%,6.1%,> 50 µM,> 50 µM,> 50 µM,> 50 µM,,,,,,,,,,,
OC1c2ccccc2-c2nc(-c3cccc(Br)c3)cc(-c3ccccc3)c21 (centres undefined),0%,8.6%,> 50 µM,43.2 µM,> 50 µM,> 50 µM,,,,,,,,,,,
O=C1c2ccccc2-c2nc(-c3ccccc3OC(F)(F)F)cc(-c3ccccc3)c21,,,14.7 µM,10.7 µM,> 50 µM,> 50 µM,,,,,,35%,0%,0.6%,,,
OC1c2ccccc2-c2nc(-c3ccccc3F)cc(-c3ccccc3)c21 (centres undefined),0%,6.7%,> 50 µM,> 50 µM,> 50 µM,> 50 µM,,,,,,,,,,,
OC1c2ccccc2-c2nc(-c3ccc(F)cc3)cc(-c3ccccc3)c21 (centres undefined),0%,7.1%,> 50 µM,> 50 µM,> 50 µM,> 50 µM,,,,,,,,,,,
OC1c2ccccc2-c2nc(-c3cccc(C(F)(F)F)c3)cc(-c3ccccc3)c21 (centres undefined),,,> 50 µM,> 50 µM,> 50 µM,> 50 µM,57.3%,25.9%,9.3%,,,,,,,,
OC1c2ccccc2-c2nc(-c3cccc(Cl)c3)cc(-c3ccccc3)c21 (centres undefined),0%,7.6%,> 50 µM,> 50 µM,> 50 µM,> 50 µM,,,,,,,,,,,
O=C1c2ccccc2-c2nc(-c3ccccc3Br)cc(-c3ccccc3)c21,,,> 50 µM,8.42 µM,> 50 µM,> 50 µM,,,,93.4%,82.9%,,,,60.4%,0%,
OC1c2ccccc2-c2nc(-c3cccc(OC(F)(F)F)c3)cc(-c3ccccc3)c21 (centres undefined),,,> 50 µM,> 50 µM,14.8 µM,> 50 µM,66.7%,18.3%,12.2%,,,,,,,,
OC1c2ccccc2-c2nc(-c3ccccc3Br)cc(-c3ccccc3)c21 (centres undefined),0.2%,12.6%,7.03 µM,6.48 µM,1.55 µM,16 µM,,,,,,,,,,,
O=C1c2ccccc2-c2nc(-c3cccc(Cl)c3)cc(-c3ccccc3)c21,,,23.4 µM,14.4 µM,> 50 µM,> 50 µM,,,,98.1%,85.7%,,,,89.2%,0%,
O=C1c2ccccc2-c2nc(-c3ccc(F)cc3)cc(-c3ccccc3)c21,,,33.3 µM,20.7 µM,> 50 µM,> 50 µM,,,,36.9%,34.7%,,,,2.5%,0%,
OC1c2ccccc2-c2nc(-c3ccc(C(F)(F)F)cc3)cc(-c3ccccc3)c21 (centres undefined),,,> 50 µM,338 µM,24.8 µM,> 50 µM,51.2%,13.8%,9.9%,,,,,,,,
O=C1c2ccccc2-c2nc(-c3cccc(F)c3)cc(-c3ccccc3)c21,,,> 50 µM,> 50 µM,> 50 µM,> 50 µM,,,,0%,34.2%,,,,,0%,
O=C1c2ccccc2-c2nc(-c3ccc(C(F)(F)F)cc3)cc(-c3ccccc3)c21,,,20.5 µM,42.2 µM,> 50 µM,> 50 µM,,,,,,89.8%,8.1%,57.2%,,,0.3%
COc1cccc2c1C(=O)c1c(O)c3c(c(O)c1C2=O)C[C@@](O)(C(=O)CO)C[C@@H]3O[C@H]1C[C@H](N)[C@H](O)[C@H](C)O1 [DOXORUBICIN HYDROCHLORIDE],,,136 µM,2.99 µM,1.48 µM,1.36 µM,,,,,,,,,,,
